Patent US7064119B2, “Fused bicyclic pyrimidine derivatives” (Kyorin Pharmaceutical Co., Ltd., priority 2002, dated 2006)

Columns and labels:
[1] = tested on: Guinea pigs; experiment: Cystometry test on guinea pigs (spinal cord cut), effective bladder capacity; type: in vivo; conditions: guinea pig
Excerpt: (2) Cystometry Test on Guinea Pigs
The method used was according to the method proposed by J S. Peterson et al. (Peterson J S. et al., J. Pharmacol. Methods 21(1989): 231), to which minor modifications were made.
Guinea pigs were anesthetized with halothane and the tenth thoracic spinal cord was cut in each animal. Subsequently, both ureters were ligated and were cut on the kidney-side. Polyethylene catheters were inserted into the bladder to provide an injection pathway for physiological saline and a pathway for the measurement of intravesical pressure. Each animal was restricted in a Ballman cage and was left for more than 2 hours. Subsequently, room-temperature saline was injected through the bladder catheter into the bladder at a rate of 6 mL/hr to conduct a cystometry test. Once the effective bladder capacity was stabilized, a test compound was intravenously administered into the jugular vein. The effective bladder capacity is defined as the volume of saline injected from one urination to the next. The effect of each test compound was determined as the increase in the average bladder volume, which was determined based on the average bladder volume measured 30 minutes prior to the administration of the test compound and the average bladder volume measured every 30 minutes after the administration of the test compound.

[2] = target: T1, NK1 receptor (Cavia porcellus, UniProt P30547); experiment: Test for NK1 receptor antagonist: substance P concentration-response in isolated guinea pig ileum, Schild analysis; conditions: substance P-induced contraction, 10 min pretreatment, method of Schild
T1 construct: from tissue; host or cells: isolated guinea pig ileum
Description: (1) Test for NK1 Receptor Antagonist
The method used was according to the method proposed by S. Dion et al.(Dion et al., Life Sciences 41(1987): 2269), to which minor modifications were made.
Guinea pigs were stunned by a blow on the head and were exsanguinated from the carotid artery and ilea were isolated. The ileum was mounted in an organ bath containing Tyrode's solution which was maintained at 32° C. and gased with 95% O2 and 5% CO2. The ileum was subjected to a resting tension of 1-gram and allowed to equilibrate for 20 minutes before the experiment was started. As a control, a concentration-response curve for substance P in the absence of any of test compounds was used. The NK1 receptor antagonist activity of each test compound was determined by a concentration-response curve obtained by pretreating at least three concentrations of the test compound for 10 minutes and subsequently applying substance P in a cumulative manner. The Kb values were determined according to the method of Schild and the results are shown in Table 1 (Schild Brit. J. Pharmacol. 14(1959): 48).
The composition of the Tyrode's solution was as follows: NaCl=136.9, KCl=2.7, CaCl2·2H2O=2.5, MgCl2·6H2O=1.0, NaH2PO4·2H2O=0.4, NaHCO3=11.9, glucose=11.1 (mmol/L)

T1 sequence (P30547 whole entry): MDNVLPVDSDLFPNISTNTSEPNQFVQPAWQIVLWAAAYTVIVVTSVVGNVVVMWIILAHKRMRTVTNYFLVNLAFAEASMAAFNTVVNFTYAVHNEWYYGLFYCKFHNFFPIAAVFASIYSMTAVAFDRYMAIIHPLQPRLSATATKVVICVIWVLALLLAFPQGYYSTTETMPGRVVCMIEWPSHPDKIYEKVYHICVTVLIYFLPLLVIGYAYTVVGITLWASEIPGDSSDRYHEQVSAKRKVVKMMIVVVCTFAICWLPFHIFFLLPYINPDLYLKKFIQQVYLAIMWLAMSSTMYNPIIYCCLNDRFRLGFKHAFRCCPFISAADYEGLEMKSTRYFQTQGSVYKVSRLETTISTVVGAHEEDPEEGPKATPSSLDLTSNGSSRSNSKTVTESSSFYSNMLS

Compound	Increase in bladder capacity (%) ([1]; dose 0.3 mg/kg i.v.)	Kb [2] [nM]	Increase in bladder capacity (%) ([1]; dose 1 mg/kg i.v.)	Increase in bladder capacity (%) ([1]; dose 3 mg/kg i.v.)
CC(=O)N1CCN(c2nc3c(c(-c4ccccc4C)n2)C(=O)N(Cc2cc(C(F)(F)F)cc(C(F)(F)F)c2)CCCN3)CC1 [Compound of Example 4, 2-(4-acetylpiperazine-1-yl)-6-[3,5-bis(trifluoromethyl)benzyl]-5,6,7,8,9,10-hexahydro-4-(2-methylphenyl)-5-oxopyrimido[4,5-b][1,5]diazocine]	43.0	0.148		
CC(=O)N1CCN(c2nc(-c3ccccc3C)c3c(n2)N(C)CCCN(Cc2cc(C(F)(F)F)cc(C(F)(F)F)c2)C3=O)CC1 [Compound of Example 20]		0.324		
Cc1ccccc1-c1nc(N2CCOCC2)nc2c1C(=O)N(Cc1cc(C(F)(F)F)cc(C(F)(F)F)c1)CCCN2C [Compound of Example 21, 6-[3,5-bis(trifluoromethyl)benzyl]-5,6,7,8,9,10-hexahydro-10-methyl-4-(2-methylphenyl)-2-(morpholine-4-yl)-5-oxopyrimido(4,5-b][1,5]diazocine]		0.42		
CC(=O)N1CCN(c2nc(-c3ccccc3C)c3c(n2)N(C(C)=O)CCCN(Cc2cc(C(F)(F)F)cc(C(F)(F)F)c2)C3=O)CC1 [Compound of Example 22, 10-acetyl-2-(4-acetylpiperazine-1-yl)-6-[3,5-bis(trifluoromethyl)benzyl]-5,6,7,8,9,10-hexahydro-4-(2-methylphenyl)-5-oxopyrimido[4,5-b][1,5]diazocine]		0.0794		
COc1ccccc1-c1nc(N2CCS(=O)(=O)CC2)nc2c1C(=O)N(Cc1cc(C(F)(F)F)cc(C(F)(F)F)c1)CCCN2 [Compound of Example 28, 6-[3,5-bis(trifluoromethyl)benzyl]-2-(1,1-dioxothiomorpholine-4-yl)-5,6,7,8,9,10-hexahydro-4-(2-methoxyphenyl)-5-oxopyrimido[4,5-b][1,5]diazocine]		0.169		
Cc1ccc(-c2c3n(c(=O)c4ncccc24)CC[C@@H](C)CN(Cc2cc(C(F)(F)F)cc(C(F)(F)F)c2)C3=O)cc1 [TAK-637]	12.0	0.269	23.8	20.5
